Assay results reported in patent US12612412B2, “Antiviral heterocyclic compounds” (Enanta Pharmaceuticals, Inc., priority 2021, dated 2026).
Read-outs that look alike come from different tables or passages of the source.

Columns and labels:
[1] = tested on: genotype A, "Long" strain RSV; experiment: RSV-A assay (CPE protection in Hep-2 cells, ATPlite readout); type: cell-based, Human respiratory syncytial virus (HRSV); details: MOI 0.1, CPE protection
Method in brief: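 Compound effect on RSV-induced CPE: Hep-2 monolayers, MOI 0.1, duplicate 2-fold titrations, 5-day culture in 10% FBS DMEM. Readout is ATP-based luminescence, normalised to virus-only and no-virus controls, giving EC50.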

[2] = tested on: recombinant HMPV CAN97-83 containing eGFP (MPV-GFP1); experiment: HMPV antiviral assay Method-A (MPV-GFP1 eGFP fluorescence in Vero E6 cells); type: cell-based, Human metapneumovirus (HMPV); details: human metapneumovirus, Vero C1008, 120 h, read-out: HMPV EC50
Description: HMPV antiviral activity was evaluated using a recombinant version of HMPV CAN97-83 engineered to contain the coding sequence for enhanced green fluorescence protein (eGFP) in the 3′ end of the virus genome (MPV-GFP1, ViraTree). Vero E6 cells ([…]) were seeded at a density of 12,000 cells/100 μL/well into 96-well cell plates one day prior to the assay. On the day of screening, the cell culture medium was aspirated from the wells and cells were washed twice with serum-free Eagle's Modified Essential Medium (EMEM, ATCC #) containing 1% penicillin-streptomycin (Invitrogen) (SF-EMEM). Cell washes were performed by dispensing 100 μL SF-EMEM per well and immediately aspirating the wash medium from the well. Following the second wash step, serum-free OptiMEM (Invitrogen, Cat No.) (SF-OptiMEM) containing 0.5 μg/mL TPCK-Trypsin (VENDOR) and 1% penicillin-streptomycin was added to the cells at 50 μL/well. Compounds were added into the 96-well plates using a JANUS automated liquid handling system (VENDOR). Compounds were initially diluted 1:50 into an intermediate 96-well plate containing SF-OptiMEM prior to transfer to the assay plate (25 μL/well). Each of the test compounds were tested in duplicate wells at final concentrations starting from 8 μM or 2 μM using ½ stepwise dilutions for a total of 8 points. Virus infection was performed by preparing a working stock of MPV-GFP1 at a multiplicity of infection (MOI) equal to 0.05/25 μL and aliquoting 25 μL of virus inoculum to the compound and positive control wells. SF-OptiMEM was added (25 μL/well) to the appropriate wells to serve as a virus-free negative control for the assay. The final DMSO concentration of all wells is 0.5%. Plates were incubated at 32° C., 5% CO2 for 5 days.
After 5 days incubation, eGFP fluorescence intensity was measured at (X) […] wavelength using a Spectramax i3× plate reader (VENDOR). Percent viral inhibition was calculated using the following equation: y=[…]
Where XQ is the fluorescence intensity measured in a well containing recombinant MPV-GFP1-infected, compound-treated cells and XP is the average fluorescence intensity measured in the wells containing untreated cells infected with recombinant virus. EC50 values were then calculated by non-linear regression using a four parameter curve logistic equation. The curve fit model employed was XLFit Dose Response One Site Model 200: y=(A+(B/(1+((x/C)^D))))
Where A is the minimum y value, B is the maximum y value, C is the log EC50 value, and D is the slope factor. […] EC50 ranges are as follows: A<0.5 μM; B>0.5 μM.

[3] = tested on: HMPV clinical isolate TN/1501/A1; experiment: HMPV antiviral assay Method-B (clinical isolate TN/1501/A1 in LLC-MK2 cells, ATP-Lite readout); type: cell-based, Human metapneumovirus (HMPV); details: hMPV WT1501 (clinical isolate TN/1501/A1), 6 days
Method in brief: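 EC50 derived by four-parameter logistic fit of percent cell health, measured by ATP-Lite luminescence and normalised to virus-only and uninfected-cell controls. Compounds run in duplicate from 10 μM top, 3-fold, 10 points. Infection: LLC-MK2 cells, MOI 0.014, 2 μg/mL final TPCK-trypsin, serum-free, 6 days at 37° C.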

[4] = human respiratory syncytial virus, genotype A “Long” strain RSV, read-out: Human RSV-A (“Long”)
[5] = human respiratory syncytial virus, RSV-A Long strain, read-out: Human RSV-A (“Long”) EC50
[6] = human metapneumovirus, LLC-MK2, 144 h

Structure (SMILES) | EC50 [1, 5] | EC50 [3, 6] | other results
C[C@H](COc1ccc(C(=O)NC[C@](O)(c2cc3c(c(-c4ccc(F)cc4)n2)OC[C@]3(C)C(N)=O)C(F)(F)F)cc1OC1CC1)OP(=O)(O)O [Example 3] | – | – | EC50 [1, 4]: < 200 nM; EC50 [2]: > 500 nM
COc1cc(C(=O)NC[C@](O)(c2cc3c(c(-c4ccc(F)cc4)n2)OC[C@]3(C)C(N)=O)C(F)(F)F)cc2cc(C)c(CO)nc12 [Example 4] | – | – | EC50 [1, 4]: < 200 nM; EC50 [2]: < 500 nM
COc1cc(C(=O)NC[C@](O)(c2cc3c(c(-c4ccc(F)cc4)n2)OC[C@]3(C)C(N)=O)C(F)(F)F)cc2ccnnc12 [Example 6] | – | – | EC50 [1, 4]: < 200 nM; EC50 [2]: < 500 nM
C[C@]1(C(N)=O)COc2c1cc([C@@](O)(CNC(=O)c1ccc3nnc(C4CC4)cc3c1)C(F)(F)F)nc2-c1ccc(F)cc1 [Example 7] | – | – | EC50 [1, 4]: < 200 nM; EC50 [2]: < 500 nM
COc1cc(C(=O)NC[C@](O)(c2cc3c(c(-c4ccc(F)cc4)n2)OC[C@]3(C)C(N)=O)C(F)(F)F)cc2cc(C)nnc12 [Example 9] | – | – | EC50 [1, 4]: < 200 nM; EC50 [2]: < 500 nM
COc1cc(C(=O)NC[C@](O)(c2cc3c(c(-c4ccc(F)c(Cl)c4)n2)OC[C@]3(C)C(N)=O)C(F)(F)F)cc2cc(C)nnc12 [Example 10] | – | – | EC50 [1, 4]: < 200 nM; EC50 [2]: < 500 nM
CCc1nc2ccc(C(=O)NC[C@](O)(c3cc4c(c(-c5ccc(F)cc5)n3)OC[C@]4(C)C(N)=O)C(F)(F)F)cc2s1 [Example 11] | – | – | EC50 [1, 4]: < 200 nM; EC50 [2]: > 500 nM
C[C@]1(C(N)=O)COc2c1cc([C@@](O)(CNC(=O)c1cc(F)c3nc(N)sc3c1)C(F)(F)F)nc2-c1ccc(F)c(Cl)c1 [Example 12] | – | – | EC50 [1, 4]: < 200 nM; EC50 [2]: < 500 nM
C[C@]1(C(N)=O)COc2c1cc([C@@](O)(CNC(=O)c1cc(Cl)c3nc(N)sc3c1)C(F)(F)F)nc2-c1ccc(F)c(Cl)c1 [Example 13] | – | – | EC50 [1, 4]: < 200 nM; EC50 [2]: < 500 nM
C[C@]1(C(N)=O)COc2c1cc([C@@](O)(CNC(=O)c1ccc3nc(C4CC4)sc3c1)C(F)(F)F)nc2-c1ccc(F)cc1 [Example 14] | – | – | EC50 [1, 4]: < 200 nM; EC50 [2]: < 500 nM
CNC(=O)[C@@]1(C)COc2c1cc([C@@](O)(CNC(=O)c1cc(OC)c3nn(C4CC4)cc3c1)C(F)(F)F)nc2-c1ccc(F)cc1 [Example 1190] | < 200 nM | < 500 nM | –
CNC(=O)[C@@]1(C)COc2c1cc([C@@](O)(CNC(=O)c1cc(OC)c3nn(C(F)F)cc3c1)C(F)(F)F)nc2-c1ccc(F)cc1 [Example 1191] | < 200 nM | < 500 nM | –
C[C@]1(C(N)=O)COc2c1cc([C@@](O)(CNC(=O)c1cc(OC3CC3)c3nc(Cl)ccc3c1)C(F)(F)F)nc2-c1ccc(F)cc1 [Example 1192] | < 200 nM | > 500 nM | –
C[C@]1(C(N)=O)COc2c1cc([C@@](O)(CNC(=O)c1cc(OC3CC3)c3nc(Cl)ccc3c1)C1CC1)nc2-c1ccc(F)cc1 [Example 1193] | < 200 nM | > 500 nM | –
C[C@]1(C(N)=O)COc2c1cc([C@@](O)(CNC(=O)c1cc(OC3CC3)c3nc(Cl)ccc3c1)C1CC1)nc2-c1ccc(F)c(F)c1Cl [Example 1194] | < 200 nM | > 500 nM | –
COc1cc(C(=O)NC[C@](O)(c2cc3c(c(-c4ccc(F)c(F)c4Cl)n2)OC[C@]3(C)C(N)=O)C2CC2)cc2cc(C)cnc12 [Example 1195] | < 200 nM | < 500 nM | –
COc1cc(C(=O)NC[C@](O)(c2cc3c(c(-c4ccc(F)c(F)c4Cl)n2)OC[C@]3(C)C(N)=O)C2CC2)cc2ccc(C)nc12 [Example 1196] | < 200 nM | > 500 nM | –
COc1cc(C(=O)NC[C@](O)(c2cc3c(c(-c4ccc5c(c4)OC(F)(F)C(F)(F)O5)n2)OC[C@]3(C)C(N)=O)C(F)(F)F)cc2cn(C3CC3)nc12 [Example 1218] | < 200 nM | > 500 nM | –

Structure (SMILES) | EC50 [1, 5] | EC50 [3, 6] | other results
COc1cc(C(=O)NC[C@@](O)(c2cc3c(c(-c4ccc5c(c4)OC(F)(F)C(F)(F)O5)n2)OC[C@]3(C)C(N)=O)C(F)(F)F)cc2cn(C3CC3)nc12 [Example 1219] | – | – | EC50 ([1]; RSV-A Long strain, read-out: Human RSV-A (“Long”) EC50): < 200 nM; EC50 [3]: > 500 nM
COc1cc(C(=O)NC[C@](O)(c2cc3c(c(-c4cc(Br)c(F)cc4F)n2)OC[C@]3(C)C(N)=O)C(F)(F)F)cc2cn(C3CC3)nc12 [Example 1223] | < 200 nM | – | EC50 [3]: < 500 nM
COc1cc(C(=O)NC[C@@](O)(c2cc3c(c(-c4cc5c(cc4Cl)OC(F)(F)O5)n2)OC[C@]3(C)C(N)=O)C(F)(F)F)cc2cn(C3CC3)nc12 [Example 1226] | < 200 nM | > 500 nM | –
COc1cc(C(=O)NC[C@](O)(c2cc3c(c(-c4cc5c(cc4Cl)OC(F)(F)O5)n2)OC[C@]3(C)C(N)=O)C(F)(F)F)cc2cn(C3CC3)nc12 [Example 1227] | < 200 nM | < 500 nM | –
COc1cc(C(=O)NC[C@](O)(c2cc3c(c(C4=CCC(F)(F)CC4)n2)OC[C@]3(C)C(N)=O)C(F)(F)F)cc2cn(C3CC3)nc12 [Example 1228] | < 200 nM | > 500 nM | –
COc1cc(C(=O)NC[C@@](O)(c2cc3c(c(C4=CCC(F)(F)CC4)n2)OC[C@]3(C)C(N)=O)C(F)(F)F)cc2cn(C3CC3)nc12 [Example 1229] | > 200 nM | > 500 nM | –
COc1cc(C(=O)NC[C@@](O)(c2cc3c(c(-c4cc5c(cc4Cl)OC(F)(F)O5)n2)OC[C@]3(C)C(N)=O)C2CC2)cc2cn(C3CC3)nc12 [Example 1230] | > 200 nM | > 500 nM | –
COc1cc(C(=O)NC[C@](O)(c2cc3c(c(-c4cc5c(cc4Cl)OC(F)(F)O5)n2)OC[C@]3(C)C(N)=O)C2CC2)cc2cn(C3CC3)nc12 [Example 1231] | < 200 nM | < 500 nM | –
COc1cc(C(=O)NC[C@@](O)(c2cc3c(c(-c4c(F)cccc4F)n2)OC[C@]3(C)C(N)=O)C(F)(F)F)cc2cn(C3CC3)nc12 [Example 1232] | > 200 nM | > 500 nM | –
COc1cc(C(=O)NC[C@](O)(c2cc3c(c(-c4c(F)cccc4F)n2)OC[C@]3(C)C(N)=O)C(F)(F)F)cc2cn(C3CC3)nc12 [Example 1233] | < 200 nM | > 500 nM | –
COc1cc(C(=O)NC[C@@](O)(c2cc3c(c(-c4c(F)cc(F)cc4Cl)n2)OC[C@]3(C)C(N)=O)C(F)(F)F)cc2cn(C3CC3)nc12 [Example 1234] | > 200 nM | > 500 nM | –
COc1cc(C(=O)NC[C@](O)(c2cc3c(c(-c4c(F)cc(F)cc4Cl)n2)OC[C@]3(C)C(N)=O)C(F)(F)F)cc2cn(C3CC3)nc12 [Example 1235] | < 200 nM | < 500 nM | –
COc1cc(C(=O)NC[C@](O)(c2cc3c(c(-c4ccccc4Cl)n2)OC[C@]3(C)C(N)=O)C(F)(F)F)cc2cn(C3CC3)nc12 [Example 1248] | < 200 nM | < 500 nM | –
COc1cc(C(=O)NC[C@](O)(c2cc3c(c(-c4ccc(-c5ccccc5)cc4)n2)OC[C@]3(C)C(N)=O)C(F)(F)F)cc2cn(C3CC3)nc12 [Example 1249] | > 200 nM | > 500 nM | –
COc1cc(C(=O)NC[C@](O)(c2cc3c(c(-c4ccccc4-c4ccccc4)n2)OC[C@]3(C)C(N)=O)C(F)(F)F)cc2cn(C3CC3)nc12 [Example 1250] | < 200 nM | > 500 nM | –
COc1cc(C(=O)NC[C@](O)(c2cc3c(c(-c4cccc(-c5ccccc5)c4)n2)OC[C@]3(C)C(N)=O)C(F)(F)F)cc2cn(C3CC3)nc12 [Example 1251] | > 200 nM | > 500 nM | –
COc1cc(C(=O)NC[C@](O)(c2cc3c(c(N4CCOCC4)n2)OC[C@]3(C)C(N)=O)C(F)(F)F)cc2cn(C3CC3)nc12 [Example 1269] | > 200 nM | > 500 nM | –
